The source of these data is PMC3252880, “Synthesis of 2-amino-3-arylpropan-1-ols and 1-(2,3-diaminopropyl)-1,2,3-triazoles and evaluation of their antimalarial activity” (Beilstein Journal of Organic Chemistry, 2011).

“And” between values parts separate entries of the source, which are not always exact repeats. Equal entries are not always repeated. Where two headings read alike, the source gives them in different places.

The test system of data set [1] is chloroquine-sensitive (CQS) strain of P. falciparum (D10). Nature of the data set: in vitro antiplasmodial activity, chloroquine-sensitive strain D10. It is filed as cell-based, Plasmodium falciparum. Particulars: for antiplasmodial activity (in words): in vitro, P. falciparum. Here is the method: All samples were tested in triplicate on one occasion against a chloroquine-sensitive (CQS) strain of P. falciparum (D10). […] The antiplasmodial and cytotoxicity assays were performed as described previously.

Data set [2] concerns Chinese hamster ovary (CHO) cell-line. Put plainly: in vitro cytotoxicity against CHO cell-line. It is filed as cell-based. The settings on record: for IC50: read-out: CHO: IC50; for SI (Selectivity Index) = IC50 CHO/IC50 D10: ratio CHO/D10. Here is the method:
At first, compounds 6a–c, 8a–e, 9a–d, 12a,b, 14a–e, 15a–f and 16a–g were screened for in vitro antiplasmodial activity. All samples were tested in triplicate on one occasion against a chloroquine-sensitive (CQS) strain of P. falciparum (D10). Those samples showing antiplasmodial activity were then tested in triplicate on one occasion against a chloroquine-resistant (CQR) strain of P. falciparum (Dd2) and screened for in vitro cytotoxicity against a Chinese hamster ovary (CHO) cell-line, in triplicate on one occasion. The antiplasmodial and cytotoxicity assays were performed as described previously.

Data set [3] relates to chloroquine-resistant (CQR) strain of P. falciparum (Dd2). Put plainly: in vitro antiplasmodial activity, chloroquine-resistant strain Dd2. The class given is cell-based, Plasmodium falciparum. Particulars: for RI (Resistance Index) = IC50 Dd2/IC50 D10: ratio Dd2/D10.
Data set [4] has as its system P. berghei. Set-up: method as in PMID 17194200, PMID 14500986. Particulars: in vivo; cited from earlier work.
The test system of data set [5] is P. falciparum. More on the design: method as in PMID 17194200, PMID 14500986. Particulars: cited from earlier work.
Where [6] appears, read: CQS strain D10, tested in triplicate on one occasion, hydrophobic samples added as suspension, read-out: D10: IC50.
[7] abbreviates: CHO cell-line, in triplicate on one occasion.
[8] abbreviates: CQR strain Dd2, tested in triplicate on one occasion, read-out: Dd2: IC50.
[9] abbreviates: Plasmodium falciparum, DD2, read-out: Dd2: IC50.
[10] abbreviates: Plasmodium falciparum, D10, CQS strain D10, tested in triplicate on one occasion, hydrophobic samples added as suspension, read-out: D10: IC50.
Where [11] appears, read: Plasmodium falciparum, D10, read-out: D10: IC50, CQS strain D10, tested in triplicate on one occasion, hydrophobic samples added as suspension.
The mark [12] stands for this setting: read-out: D10: IC50, CQS strain D10, tested in triplicate on one occasion, hydrophobic samples added as suspension.
[13] abbreviates: Cricetulus griseus, CHO cell-line, in triplicate on one occasion.
[14] abbreviates: Plasmodium falciparum, CQR strain Dd2, tested in triplicate on one occasion, read-out: Dd2: IC50.

The IC50 is the concentration at which inhibition is half-maximal. For the molecule `COC(c1ccccc1)C(CO)NC(C)C` (racemic) [Compound 8a], in data set [1] (setting [6]), the IC50 was found to be 370 µM.
For the molecule `COC(c1ccccc1)C(CO)NCc1ccccc1` (racemic) [Compound 8b], the IC50 in data set [1] (setting [6]) was found to be 144 µM.
`COC(c1ccc(Cl)cc1)C(CO)NCc1ccccc1` (racemic) [Compound 8c]: the IC50 in data set [1] (setting [6]) is 199 µM.
As for `COc1ccc(C(OC)C(CO)NCC(C)C)cc1` (racemic) [Compound 8d], the IC50 in data set [1] (setting [6]) was 38.6 µM; in data set [2] (setting [7]), more than 530 µM; in data set [3] (setting [8]) it was 25.7 µM. For the same molecule, the “RI (Resistance Index) = IC50 Dd2/IC50 D10” value in data set [3] turned out to be 0.7.
As for `CCCNC(CO)C(OC)c1ccccc1F` (racemic) [Compound 8e], the values for the IC50 in data set [1] (setting [6]), in data set [2] (setting [7]) and in data set [3] (setting [8]) were 38.5 µM, more than 530 µM and 21.9 µM, respectively. In addition, the “RI (Resistance Index) = IC50 Dd2/IC50 D10” value in data set [3] is 0.6.
With `OCC(NCc1ccccc1)C(O)c1ccccc1Cl` (racemic) [Compound 9b], the IC50 in data set [1] (setting [6]) is ≤ 25 µM and 21.2 µM; in data set [2] (setting [7]) it was more than 530 µM; in data set [3] (setting [8]) it was 13.6 µM. For the same molecule, the “RI (Resistance Index) = IC50 Dd2/IC50 D10” value in data set [3] was determined as 0.6.
Take `Cc1ccc(C(O)C(CO)NCc2ccccc2)cc1` (racemic) [Compound 9c]: the IC50 in data set [1] (setting [6]) came to 130 µM.
On to `OCC(NCc1ccc(Cl)cc1)C(O)c1ccccc1` (racemic) [Compound 9d], for which the IC50 in data set [1] (setting [6]) stood at 80.7 µM.
Turning to `CCN(CC)CCCC(C)Nc1ccnc2cc(Cl)ccc12` (centres unmarked) [CQ, reference compound], the IC50 in data set [1] (Plasmodium falciparum, D10, read-out: D10: IC50, CQS strain D10, n = 6 data sets averaged) was determined as 0.0191 µg/mL; in data set [3] (setting [9]) it was 0.0756 µg/mL. For the same molecule, the “RI (Resistance Index) = IC50 Dd2/IC50 D10” value in data set [3] turned out to be 3.9.
Take `OCC(Cc1ccc(Cl)cc1)NCc1ccccc1` (centres unmarked) [Compound 6a]: the IC50 was ≤ 25 µM and 12.6 µM in data set [1] (setting [6]); 138 µM in data set [2] (setting [7]); 10.9 µM in data set [3] (setting [8]). In data set [2], the “SI (Selectivity Index) = IC50 CHO/IC50 D10” value is 11. Further, the “RI (Resistance Index) = IC50 Dd2/IC50 D10” value in data set [3] was 0.9.
In the case of `COc1ccc(CC(CO)NCC(C)C)cc1` (centres unmarked) [Compound 6b], in data set [1] (setting [6]), the IC50 is 282 µM.
The same measure, in the same setting: the same measure for `CCCNC(CO)Cc1ccccc1F` (centres unmarked) [Compound 6c]: 217 µM.
`OCC(NCc1ccccc1)C(O)c1ccc(Cl)cc1` (stereo not drawn) [Compound 9a, anti-2-(N-Benzylamino)-1-(4-chlorophenyl)propan-1,3-diol]: the IC50 was ≤ 25 µM and 25.2 µM in data set [1] (setting [6]); more than 530 µM in data set [2] (setting [7]); 8.47 µM in data set [3] (setting [8]). Besides, in data set [3], the “RI (Resistance Index) = IC50 Dd2/IC50 D10” value came to 0.3.
One may read the melting point as the temperature, or range, at which the solid turns liquid. `COc1ccccc1[C@@H](O)[C@@H](CO)NC(C)(C)C` [Compound 12a, syn-2-(N-tert-Butylamino)-1-(2-methoxyphenyl)propan-1,3-diol] gave a melting point of 112.8 °C. Also, the IC50 in data set [1] (setting [10]) was found to be 98.7 µM.
`CC(C)(C)N[C@H](CO)[C@H](O)c1ccccc1F` [Compound 12b]: the IC50 in data set [1] (setting [10]) stood at 60.5 µM.
In the case of `[N-]=[N+]=NCC1CN1Cc1ccccc1` (centres unmarked) [Compound 14a, 2-Azidomethyl-1-(phenylmethyl)aziridine], the IC50 in data set [1] (setting [11]) is 230 µM; in data set [2] (Cricetulus griseus, CHO), more than 530 µM; in data set [3] (setting [9]), 467 µM. In addition, the “RI (Resistance Index) = IC50 Dd2/IC50 D10” value in data set [3] stood at 2.
As to `[N-]=[N+]=NCC1CN1Cc1ccc(Cl)cc1` (centres unmarked) [Compound 14b], the IC50 in data set [1] (setting [6]) was 101 µM.
Turning to `COc1ccc(CN2CC2CN=[N+]=[N-])cc1` (centres unmarked) [Compound 14c], the IC50 in data set [1] (setting [6]) worked out at 160 µM.
Consider `[N-]=[N+]=NCC1CN1Cc1ccccc1Cl` (centres unmarked) [Compound 14d], for which, in data set [1] (setting [6]), the IC50 was 93.7 µM.
On to `[N-]=[N+]=NCC1CN1Cc1cccc(Cl)c1` (centres unmarked) [Compound 14e], for which, in data set [1] (setting [6]), the IC50 was 180 µM.
In the case of `c1ccc(CN2CC2Cn2cc(-c3ccccc3)nn2)cc1` (centres unmarked) [Compound 15a, 1-Phenylmethyl-2-[(4-phenyl-1,2,3-triazol-1-yl)methyl]aziridine], the IC50 in data set [1] (setting [11]) was 34.4 µM; in data set [2] (Cricetulus griseus, CHO), more than 530 µM; in data set [3] (setting [9]) it was 107 µM. Also, the “RI (Resistance Index) = IC50 Dd2/IC50 D10” value in data set [3] came out at 3.1.
As for `Clc1ccc(CN2CC2Cn2cc(-c3ccccc3)nn2)cc1` (centres unmarked) [Compound 15b], the IC50 in data set [1] (setting [6]) is 41.3 µM.
`COc1ccc(CN2CC2Cn2cc(-c3ccccc3)nn2)cc1` (centres unmarked) [Compound 15c]: the IC50 in data set [1] (setting [11]) was not above 25 µM; in data set [1] (setting [12]), 25.7 µM; in data set [2] (Cricetulus griseus, CHO), more than 530 µM; in data set [3] (setting [9]), 55.6 µM. Further, the “antiplasmodial activity (in words)” value in data set [1] was “weak antiplasmodial activity”. Besides, in data set [3], the “RI (Resistance Index) = IC50 Dd2/IC50 D10” value is 2.2.
On to `Cc1ccc(-c2cn(CC3CN3Cc3ccccc3)nn2)cc1` (centres unmarked) [Compound 15d], for which the IC50 in data set [1] (setting [11]) was not above 25 µM; in data set [1] (setting [12]), 20.4 µM; in data set [2] (Cricetulus griseus, CHO), more than 530 µM; in data set [3] (setting [9]) it was 21 µM. Moreover, in data set [1], the “antiplasmodial activity (in words)” value is “weak antiplasmodial activity”. Moreover, the “RI (Resistance Index) = IC50 Dd2/IC50 D10” value in data set [3] came out at 1.
Consider `COc1ccc(-c2cn(CC3CN3Cc3ccccc3)nn2)cc1` (centres unmarked) [Compound 15e], for which, in data set [1] (setting [11]), the IC50 is 40.5 µM.
With `CCN(CC)CC(Cn1cc(-c2ccccc2)nn1)NCc1ccccc1` (centres unmarked) [Compound 16a, 3-Diethylamino-2-(phenylmethyl)amino-1-(4-phenyl-1,2,3-triazol-1-yl)propane], the IC50 in data set [1] (setting [6]) was 22.1 µM; in data set [1] (setting [10]) it was not above 25 µM; in data set [2] (setting [13]), more than 530 µM; in data set [3] (setting [14]) it was 231 µM. Further, the “RI (Resistance Index) = IC50 Dd2/IC50 D10” value in data set [3] was 10.5.
For `CCN(CC)CC(Cn1cc(-c2ccccc2)nn1)NCc1ccc(Cl)cc1` (centres unmarked) [Compound 16b], the IC50 in data set [1] (setting [6]) is ≤ 25 µM and 25.9 µM; in data set [2] (setting [7]) it was more than 530 µM; in data set [3] (setting [8]), 176 µM. In data set [3], the “RI (Resistance Index) = IC50 Dd2/IC50 D10” value is 6.8.
For the molecule `CCN(CC)CC(Cn1cc(-c2ccccc2)nn1)NCc1ccc(OC)cc1` (centres unmarked) [Compound 16c], the IC50 in data set [1] (setting [6]) came out at 140 µM.
With `CCN(CC)CC(Cn1cc(-c2ccc(C)cc2)nn1)NCc1ccccc1` (centres unmarked) [Compound 16d], the IC50 in data set [1] (setting [6]) came out at 32.5 µM.
For `CCN(CC)CC(Cn1cc(-c2ccc(OC)cc2)nn1)NCc1ccccc1` (centres unmarked) [Compound 16e], in data set [1] (setting [10]), the IC50 was found to be 171 µM.
In the case of `CN(C)CC(Cn1cc(-c2ccccc2)nn1)NCc1ccccc1Cl` (centres unmarked) [Compound 16f], the IC50 in data set [2] (setting [13]) was determined as 182 µM; in data set [3] (setting [14]), 13 µM. Further, the “SI (Selectivity Index) = IC50 CHO/IC50 D10” value in data set [2] turned out to be 16.1. Further, the “RI (Resistance Index) = IC50 Dd2/IC50 D10” value in data set [3] is on record as 1.2.
On to `CN(C)CC(Cn1cc(-c2ccccc2)nn1)NCc1ccccc1` (centres unmarked) [Compound 16g], for which the IC50 in data set [1] (setting [6]) came to 69.6 µM.
As for `CC[C@H]1CN2CCc3cc(OC)c(OC)cc3[C@@H]2C[C@@H]1C[C@H]1NCCc2cc(OC)c(OC)cc21` [Emetine, reference compound], the IC50 in data set [2] (setting [13]) is 0.27 µM.
With `CC(C)NCC(O)COc1cccc2ccccc12` (centres unmarked) [propranolol], the “parasitaemia of P. berghei infections” value in data set [4] was “reduce the parasitaemia”. Further, the “infection of erythrocytes by P. falciparum” value in data set [5] was “inhibit infection of erythrocytes”.
